Values quoted from earlier work in patent US20220347399A1, “SYSTEMS AND METHODS OF USING AN ULTRASONIC FOGGER TO DISTRIBUTE AN ANTISEPTIC SOLUTION” (Wonder Spray, LLC, priority 2021, published 2022).

Columns and labels:
[1] = tested on: f2 RNA; settings: f2 capsid proteins could still adsorb to the host
[2] = tested on: E. coli; settings: 50 mM (2.6 ppm) HOCl, within 5 minutes
[3] = inhalation of vaporized HOCl
[4] = tested on: E. coli; settings: 50 mM (2.6 ppm) HOCl, within 5 minutes; remark: listed apart in the source

Structure (SMILES): OCl [HOCl, Hypochlorous acid]
- inactivation of naked f2 RNA versus RNA in intact phage [1]: inactivated naked f2 RNA at the same rate as RNA in intact phage
- inhibition of the growth of E. coli [2]: completely inhibited
- adverse effects on inhaling the vaporized form [3]: no adverse effects
- inhibition of DNA synthesis [4]: ninety-six
